Reference: BindingDB's records for doi:10.1021/jm990967h (Glaxo Wellcome Medicines Research Centre, 2000)
pKi: −log10 of the molar value. Where “and” joins values, the source holds several entries; their conditions need not be identical. Equal entries are not always repeated.

Target: Gastrin/cholecystokinin type B receptor (Cavia porcellus)
Experiment: In vitro inhibition of binding of [3H]pCCK-8 against Cholecystokinin type B receptor of guinea pig cerebral cortex membranes

With `CC(C)(C)CCN1C(=O)C(NC(=O)Nc2ccccc2)C(=O)N(c2ccccc2)c2ccccc21` (stereo not given) as the molecule, how does the pKi read?
Its pKi is 9.17.

`O=C(O)CCCOc1ccc(NC(=O)NC2C(=O)N(CC34C[C@H]5C[C@@H](C3)C[C@@H](C4)C5)c3ccccc3N(c3ccccc3)C2=O)cc1` (stereo not given in full) was tested. Which pKi did it give?
The pKi was 8.42.

With `O=C(Nc1ccccc1)NC1C(=O)N(c2ccccc2)c2ccccc2N(C2CC3CCC2C3)C1=O` (stereo not given) as the molecule, how does the pKi read?
The pKi was 8.82.

With `CC(O)C(O)Nc1cccc(NC(=O)NC2C(=O)N(CC34C[C@H]5C[C@@H](C3)C[C@@H](C4)C5)c3ccccc3N(c3ccccc3)C2=O)c1` (stereo not given in full) as the molecule, how does the pKi read?
Its pKi is 8.89 and 9.17.

How did the pKi turn out when `CN(C)c1ccc(NC(=O)NC2C(=O)N(CCC3CCCC3)c3ccccc3N(c3ccccc3F)C2=O)cc1` (stereo not given) was run?
The pKi was 8.33.

`O=C(Nc1cccc(O)c1)NC1C(=O)N(CC23C[C@H]4C[C@@H](C2)C[C@@H](C3)C4)c2ccccc2N(c2ccccc2)C1=O` (stereo not given in full) was tested. Which pKi did it give?
The pKi was 9.24.

`Nc1cccc(NC(=O)NC2C(=O)N(CC34C[C@H]5C[C@@H](C3)C[C@@H](C4)C5)c3ccccc3N(c3ccccc3)C2=O)c1` (stereo not given in full) was tested. Which pKi did it give?
Its pKi is 9.53.

`CN(C)c1cccc(NC(=O)NC2C(=O)N(CCC34C[C@H]5C[C@@H](C3)C[C@@H](C4)C5)c3ccccc3N(c3ccccc3)C2=O)c1` (stereo not given in full) was tested. Which pKi did it give?
The pKi was 7.89.

How did the pKi turn out when `O=C(Nc1ccccc1)NC1C(=O)N(CCc2ccccc2)c2ccccc2N(c2ccccc2)C1=O` (stereo not given) was run?
The pKi was 8.08.

With `O=C(Nc1cccc(Cl)c1)NC1C(=O)N(c2ccccc2)c2ccccc2N(C2CC3CCC2C3)C1=O` (stereo not given) as the molecule, how does the pKi read?
The pKi was 8.77.

`CC(C)CC(C)N1C(=O)C(NC(=O)Nc2ccccc2)C(=O)N(c2ccccc2)c2ccccc21` (stereo not given) was tested. Which pKi did it give?
The pKi was 8.68.

`CC(C)CCN1C(=O)C(NC(=O)Nc2cccc(N(C)C)c2)C(=O)N(c2ccccc2F)c2ccccc21` (stereo not given) was tested. Which pKi did it give?
The pKi was 9.68 and 8.72 and 9.60.

`O=C(Nc1cccc(C(=O)OCCN2CCOCC2)c1)NC1C(=O)N(CC23C[C@H]4C[C@@H](C2)C[C@@H](C3)C4)c2ccccc2N(c2ccccc2)C1=O` (stereo not given in full) was tested. Which pKi did it give?
Its pKi is 9.25.

With `CC(C)(C)CCN1C(=O)C(NC(=O)Nc2ccccc2)C(=O)N(c2ccccc2F)c2ccccc21` (stereo not given) as the molecule, how does the pKi read?
The pKi was 9.02.

How did the pKi turn out when `CN(C)c1cccc(NC(=O)NC2C(=O)N(CC34C[C@H]5C[C@@H](C3)C[C@@H](C4)C5)c3ccccc3N(c3ccccc3)C2=O)c1` (stereo not given in full) was run?
The pKi was 8.96.

How did the pKi turn out when `CCCCN1C(=O)C(NC(=O)Nc2ccccc2)C(=O)N(c2ccccc2)c2ccccc21` (stereo not given) was run?
The pKi was 8.21.

How did the pKi turn out when `CC(C)Cn1nnc(-c2cccc(NC(=O)NC3C(=O)N(CCC(C)(C)C)c4ccccc4N(c4ccccc4)C3=O)c2)n1` (stereo not given) was run?
Its pKi is 8.60.

How did the pKi turn out when `O=C(Nc1cccc([N+](=O)[O-])c1)NC1C(=O)N(CC23C[C@H]4C[C@@H](C2)C[C@@H](C3)C4)c2ccccc2N(c2ccccc2)C1=O` (stereo not given in full) was run?
The pKi was 8.72.

With `O=C(Nc1ccc(O)cc1)NC1C(=O)N(CC23C[C@H]4C[C@@H](C2)C[C@@H](C3)C4)c2ccccc2N(c2ccccc2)C1=O` (stereo not given in full) as the molecule, how does the pKi read?
Its pKi is 9.18.

`CC(C)(C)CCN1C(=O)C(NC(=O)Nc2cccc(OC(F)(F)F)c2)C(=O)N(c2ccccc2)c2ccccc21` (stereo not given) was tested. Which pKi did it give?
The pKi was 8.54.

How did the pKi turn out when `O=C(Nc1cccc(C(=O)O)c1)NC1C(=O)N(CC23C[C@H]4C[C@@H](C2)C[C@@H](C3)C4)c2ccccc2N(c2ccccc2)C1=O` (stereo not given in full) was run?
Its pKi is 9.01.

How did the pKi turn out when `O=C(Nc1ccc(Br)cc1)NC1C(=O)N(CC23C[C@H]4C[C@@H](C2)C[C@@H](C3)C4)c2ccccc2N(c2ccccc2)C1=O` (stereo not given in full) was run?
The pKi was 8.85.

`CN(C)c1cccc(NC(=O)NC2C(=O)N(CCC(C)(C)C)c3ccccc3N(c3ccccc3F)C2=O)c1` (stereo not given) was tested. Which pKi did it give?
Its pKi is 9.22.

How did the pKi turn out when `CSc1cccc(NC(=O)NC2C(=O)N(CCC34C[C@H]5C[C@@H](C3)C[C@@H](C4)C5)c3ccccc3N(c3ccccc3)C2=O)c1` (stereo not given in full) was run?
The pKi was 7.22.

With `O=C(Nc1cccc(C2N=NN=N2)c1)NC1C(=O)N(CCC2CCCC2)c2ccccc2N(c2ccccc2F)C1=O` (stereo not given) as the molecule, how does the pKi read?
The pKi was 9.65.

`O=C(Nc1ccccc1)NC1C(=O)N(CCC23C[C@H]4C[C@@H](C2)C[C@@H](C3)C4)c2ccccc2N(c2ccccc2)C1=O` (stereo not given in full) was tested. Which pKi did it give?
The pKi was 7.47.

How did the pKi turn out when `CC(C)(C1CCCC1)N1C(=O)C(NC(=O)Nc2cccc(C3N=NN=N3)c2)C(=O)N(c2ccccc2)c2ccccc21` (stereo not given) was run?
Its pKi is 8.82.

How did the pKi turn out when `CCOC(=O)CCCOc1ccc(NC(=O)NC2C(=O)N(CC34C[C@H]5C[C@@H](C3)C[C@@H](C4)C5)c3ccccc3N(c3ccccc3)C2=O)cc1` (stereo not given in full) was run?
The pKi was 8.28.

With `CSc1cccc(NC(=O)NC2C(=O)N(CCC(C)(C)C)c3ccccc3N(c3ccccc3F)C2=O)c1` (stereo not given) as the molecule, how does the pKi read?
The pKi was 9.14.

With `CN(C)c1cccc(NC(=O)NC2C(=O)N(c3ccccc3)c3ccccc3N(C3[C@H]4C[C@@H]5C[C@@H](C[C@H]3C5)C4)C2=O)c1` (stereo not given in full) as the molecule, how does the pKi read?
Its pKi is 8.64.

With `CSc1cccc(NC(=O)NC2C(=O)N(CCC(C)C)c3ccccc3N(c3ccccc3F)C2=O)c1` (stereo not given) as the molecule, how does the pKi read?
The pKi was 9.48.

How did the pKi turn out when `CC(C)(C)CCN1C(=O)C(NC(=O)Nc2cccc(C#N)c2)C(=O)N(c2ccccc2)c2ccccc21` (stereo not given) was run?
The pKi was 9.19.

`CN(C)c1cccc(NC(=O)NC2C(=O)N(CCC3CCCC3)c3ccccc3N(c3ccccc3F)C2=O)c1` (stereo not given) was tested. Which pKi did it give?
The pKi was 9.17.

`CSc1cccc(NC(=O)NC2C(=O)N(CCC(C)(C)C)c3ccccc3N(c3ccccc3)C2=O)c1` (stereo not given) was tested. Which pKi did it give?
The pKi was 9.31.

`O=C(Nc1cccc(CO)c1)NC1C(=O)N(CC23C[C@H]4C[C@@H](C2)C[C@@H](C3)C4)c2ccccc2N(c2ccccc2)C1=O` (stereo not given in full) was tested. Which pKi did it give?
The pKi was 9.75.

How did the pKi turn out when `CC(C)C(C)CN1C(=O)C(NC(=O)Nc2ccccc2)C(=O)N(c2ccccc2)c2ccccc21` (stereo not given) was run?
The pKi was 8.96.

How did the pKi turn out when `O=C(Nc1ccccc1)NC1C(=O)N(CC2[C@H]3C[C@@H]4C[C@@H](C[C@H]2C4)C3)c2ccccc2N(c2ccccc2)C1=O` (stereo not given in full) was run?
Its pKi is 8.72.

`CN(C)c1cccc(NC(=O)NC2C(=O)N(c3ccccc3)c3ccccc3N(C3CC4CCC3C4)C2=O)c1` (stereo not given) was tested. Which pKi did it give?
The pKi was 9.00.

With `O=Cc1cccc(NC(=O)NC2C(=O)N(CC34C[C@H]5C[C@@H](C3)C[C@@H](C4)C5)c3ccccc3N(c3ccccc3)C2=O)c1` (stereo not given in full) as the molecule, how does the pKi read?
The pKi was 9.02.

With `CC(C)CCN1C(=O)C(NC(=O)Nc2ccccc2)C(=O)N(c2ccccc2F)c2ccccc21` (stereo not given) as the molecule, how does the pKi read?
The pKi was 8.11.

`O=C(Nc1ccccc1)NC1C(=O)N(CCC2CCCC2)c2ccccc2N(c2ccccc2F)C1=O` (stereo not given) was tested. Which pKi did it give?
Its pKi is 9.14.

`O=C(Nc1cccc(C2N=NN=N2)c1)NC1C(=O)N(c2ccccc2)c2ccccc2N(C2[C@H]3C[C@@H]4C[C@@H](C[C@H]2C4)C3)C1=O` (stereo not given in full) was tested. Which pKi did it give?
The pKi was 8.68.

`CCOC(=O)c1cccc(NC(=O)NC2C(=O)N(CC34C[C@H]5C[C@@H](C3)C[C@@H](C4)C5)c3ccccc3N(c3ccccc3)C2=O)c1` (stereo not given in full) was tested. Which pKi did it give?
Its pKi is 8.52.

How did the pKi turn out when `CC(C)(C)CCN1C(=O)C(NC(=O)Nc2cccc(C3N=NN=N3)c2)C(=O)N(c2ccccc2)c2ccccc21` (stereo not given) was run?
Its pKi is 9.54.

How did the pKi turn out when `CC(=O)Nc1cccc(NC(=O)NC2C(=O)N(CC34C[C@H]5C[C@@H](C3)C[C@@H](C4)C5)c3ccccc3N(c3ccccc3)C2=O)c1` (stereo not given in full) was run?
Its pKi is 8.89.
